# Measured values taken from paper PMC6848086, “Light on the cell cycle of the non-photosynthetic bacterium Ramlibacter tataouinensis” (Scientific Reports, 2019).
# Target: T1, RtBphP2 (Ramlibacter tataouinensis, UniProt F5Y6C4)
# T1 construct: gene Rta_28950; full-length; His6 tag (pBAD/HisB); co-expressed with Bradyrhizobium sp; ORS278 heme oxygenase in E. coli TOP10; dimer
# Experiment: gel electrophoresis with zinc fluorescence; absorption spectra of purified holoprotein
# Assay type: binding
# Settings: covalent; chromophore formed in E. coli by co-expressed heme oxygenase
# T1 sequence (F5Y6C4 entry or part of it): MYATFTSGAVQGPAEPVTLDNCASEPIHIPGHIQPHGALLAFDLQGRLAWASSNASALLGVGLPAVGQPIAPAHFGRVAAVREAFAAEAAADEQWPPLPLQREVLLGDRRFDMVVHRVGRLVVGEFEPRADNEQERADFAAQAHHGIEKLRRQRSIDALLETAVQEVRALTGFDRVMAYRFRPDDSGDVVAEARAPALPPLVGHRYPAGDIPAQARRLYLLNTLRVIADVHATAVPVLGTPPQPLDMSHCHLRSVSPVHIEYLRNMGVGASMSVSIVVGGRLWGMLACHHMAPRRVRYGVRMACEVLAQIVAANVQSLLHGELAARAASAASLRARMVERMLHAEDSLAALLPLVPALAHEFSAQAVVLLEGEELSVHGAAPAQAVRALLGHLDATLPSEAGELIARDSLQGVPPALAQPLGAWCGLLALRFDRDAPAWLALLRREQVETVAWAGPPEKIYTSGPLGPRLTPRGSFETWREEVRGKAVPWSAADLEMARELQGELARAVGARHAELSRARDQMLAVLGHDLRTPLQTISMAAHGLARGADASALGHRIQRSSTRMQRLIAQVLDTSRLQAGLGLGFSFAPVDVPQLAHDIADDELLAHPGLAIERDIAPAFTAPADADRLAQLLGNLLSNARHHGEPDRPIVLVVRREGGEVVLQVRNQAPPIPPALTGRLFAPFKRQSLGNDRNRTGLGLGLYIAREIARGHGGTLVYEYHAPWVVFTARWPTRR
compound,measurement,value
C=CC1=C(C)/C(=C/C2=NC(=C\c3[nH]c(/C=C4\NC(=O)C(C)=C4C=C)c(C)c3CCC(=O)O)/C(CCC(=O)O)=C2C)NC1=O [biliverdin],gel electrophoresis with zinc fluorescence; absorption spectra of purified holop,zinc fluorescence demonstrated that the biliverdin (BV) is covalently bound in both proteins
